Data as given in US12613239B2, “Live imaging system to visualize the retro-transcribed viral DNA genome” (priority 2019, dated 2026).
Like-named read-outs stand apart in the source and are kept apart here.

Columns and labels:
[1] = test system: HIV-1 ANCH3 (HIV-1ΔEnvINHAΔNef ANCH3/VSV-G); type: cell-based
[2] = test system: HIV-1 viral RNA; type: cell-based; conditions: 24 h
[3] = test system: HIV-1 CA and IN association; type: cell-based; conditions: 24 h
[4] = target: viral CA (Human immunodeficiency virus type 1 group M subtype B, UniProt P04591); conditions: cited from earlier work
[5] = test system: lentiviral particles pseudotyped with Spike from SARS-CoV2 (S-LV-ANCH3); type: cell-based

## Cc1ccnc2c1NC(=O)c1cccnc1N2C1CC1 [NEV, nevirapine]
[1]
  Intranuclear spots counted in 20 cells: 0 detections

## Cc1[nH]c2ccccc2c1CC(=O)N[C@@H](Cc1ccccc1)C(=O)N(C)c1ccccc1 [PF74]
[2]; high dose of PF74 (10 μM)
  Viral RNA of the incoming cores: completely degraded
[2]; low dose of PF74 (1.25 μM)
  Viral RNA of the incoming cores: not completely degraded
[3]; high dose of PF74 (10 μM)
  Association between CA and IN: lost
[3]; low dose of PF74 (1.25 μM)
  Association between CA and IN: preserved to levels comparable to samples without drug at 6 h post infection
[1]
  Detection of viral DNA inside the nucleus: detect the viral DNA inside the nucleus only in the absence of PF74
  Viral nuclear entry: blocked viral nuclear entry
[4]
  Mechanism at high concentration: accelerates uncoating and blocks reverse transcription
  Mechanism at low concentration: directly competes with the binding of host viral partners

## CCN(CCO)CCCC(C)Nc1ccnc2cc(Cl)ccc12 (stereo not shown) [hydroxychloroquine]
[5]
  Viral entry of S-LV-ANCH3: inhibit viral entry
